Measured values from patent US20090318469A1, “Use of Flibanserin for the Treatment of Sexual Disorders in Females” (Boehringer Ingelheim International GmbH, priority 2006, published 2009).

What was measured:
[1] = test system: Sexual Disorders and/or Dysfunctions; experiment: studies of female patients suffering from Sexual Disorders; assay type: in vivo; conditions: free base or acceptable derivative, qualitative
[2] = biological target: T1, 5-HT1A receptor (Homo sapiens, UniProt P08908); conditions: background statement, qualitative; cited from earlier work
T1 sequence (P08908 1-422): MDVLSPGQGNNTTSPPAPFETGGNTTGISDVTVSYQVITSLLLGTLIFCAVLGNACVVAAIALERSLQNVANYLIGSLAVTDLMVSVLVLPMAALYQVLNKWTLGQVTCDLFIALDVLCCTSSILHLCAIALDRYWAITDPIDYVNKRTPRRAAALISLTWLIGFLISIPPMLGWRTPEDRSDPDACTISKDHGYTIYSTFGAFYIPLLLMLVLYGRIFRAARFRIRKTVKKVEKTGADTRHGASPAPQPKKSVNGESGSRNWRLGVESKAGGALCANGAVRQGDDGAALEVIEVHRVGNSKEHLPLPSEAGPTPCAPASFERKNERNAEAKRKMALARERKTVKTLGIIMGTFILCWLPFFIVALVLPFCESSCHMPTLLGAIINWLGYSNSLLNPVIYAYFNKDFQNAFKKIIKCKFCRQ

[3] = test system: 5-HT2-receptor; conditions: background statement, qualitative; cited from earlier work

O=c1[nH]c2ccccc2n1CCN1CCN(c2cccc(C(F)(F)F)c2)CC1 [Flibanserin, 1-[2-(4-(3-trifluoromethyl-phenyl)piperazin-1-yl)ethyl]-2,3-dihydro-1H-benzimidazol-2-one]
effect on Sexual Disorders and/or Dysfunctions [1]: positive effect | affinity for the 5-HT1A receptor [2]: shows affinity | affinity for the 5-HT2-receptor [3]: shows affinity
